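These data come from cells grown in 96-well plates and exposed to compound for 48 hours at five concentrations. At the TGI there is no net growth.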
Legend:
Assay in all cases: NCI anticancer screen, dose series, 48 h
SK-MEL-28 melanoma = test system: SK-MEL-28 melanoma
NCI-H23 lung = test system: NCI-H23 lung
HS 578T breast = test system: HS 578T breast
MDA-N = test system: MDA-N
SK-MEL-2 melanoma = test system: SK-MEL-2 melanoma
K-562 leukemia = test system: K-562 leukemia
A498 renal = test system: A498 renal
OVCAR-5 ovarian = test system: OVCAR-5 ovarian
EKVX NSCLC = test system: EKVX NSCLC
SK-MEL-5 melanoma = test system: SK-MEL-5 melanoma
SF-268 CNS = test system: SF-268 CNS
HCT-116 colon = test system: HCT-116 colon
MDA-MB-435 = test system: MDA-MB-435
NCI-H460 lung = test system: NCI-H460 lung
LOX IMVI melanoma = test system: LOX IMVI melanoma
MALME-3M melanoma = test system: MALME-3M melanoma
SF-295 CNS = test system: SF-295 CNS
SN12C renal = test system: SN12C renal
KM12 colon = test system: KM12 colon
T-47D breast = test system: T-47D breast
PC-3 prostate = test system: PC-3 prostate
SF-539 CNS = test system: SF-539 CNS
MOLT-4 leukemia = test system: MOLT-4 leukemia
OVCAR-3 ovarian = test system: OVCAR-3 ovarian
BT-549 breast = test system: BT-549 breast
786-0 renal = test system: 786-0 renal
HCC-2998 colon = test system: HCC-2998 colon
DU-145 prostate = test system: DU-145 prostate
MDA-MB-231 breast = test system: MDA-MB-231 breast
M14 melanoma = test system: M14 melanoma
HT29 colon = test system: HT29 colon
NCI-H226 lung = test system: NCI-H226 lung
NCI-H522 lung = test system: NCI-H522 lung
RXF 393 renal = test system: RXF 393 renal
U251 CNS = test system: U251 CNS
SNB-19 CNS = test system: SNB-19 CNS
HOP-92 NSCLC = test system: HOP-92 NSCLC
HOP-62 NSCLC = test system: HOP-62 NSCLC
HCT-15 colon = test system: HCT-15 colon
UACC-257 melanoma = test system: UACC-257 melanoma
OVCAR-8 ovarian = test system: OVCAR-8 ovarian
CAKI-1 renal = test system: CAKI-1 renal
A549 NSCLC = test system: A549 NSCLC
HL-60(TB) leukemia = test system: HL-60(TB) leukemia
COLO 205 colon = test system: COLO 205 colon
CCRF-CEM leukemia = test system: CCRF-CEM leukemia
SR leukemia = test system: SR leukemia
SK-OV-3 ovarian = test system: SK-OV-3 ovarian
NCI/ADR-RES ovarian = test system: NCI/ADR-RES ovarian
OVCAR-4 ovarian = test system: OVCAR-4 ovarian
ACHN renal = test system: ACHN renal
UO-31 renal = test system: UO-31 renal
UACC-62 melanoma = test system: UACC-62 melanoma

## Cc1ccc2nc(-c3ccc(N)c(Br)c3)sc2c1
SK-MEL-28 melanoma
  TGI: > 100 µM
NCI-H23 lung
  TGI: 96.9 µM
HS 578T breast
  TGI: 43.6 µM
MDA-N
  TGI: > 100 µM
SK-MEL-2 melanoma
  TGI: 73.4 µM
K-562 leukemia
  TGI: > 100 µM
A498 renal
  TGI: > 100 µM
OVCAR-5 ovarian
  TGI: > 100 µM
EKVX NSCLC
  TGI: 58 µM
SK-MEL-5 melanoma
  TGI: > 100 µM
SF-268 CNS
  TGI: > 100 µM
HCT-116 colon
  TGI: > 100 µM
MDA-MB-435
  TGI: 64.1 µM
NCI-H460 lung
  TGI: 31.5 µM
LOX IMVI melanoma
  TGI: 30.4 µM
MALME-3M melanoma
  TGI: > 100 µM
SF-295 CNS
  TGI: > 100 µM
SN12C renal
  TGI: > 100 µM
KM12 colon
  TGI: 30.8 µM
T-47D breast
  TGI: 59.7 µM
PC-3 prostate
  TGI: > 100 µM
SF-539 CNS
  TGI: > 100 µM
MOLT-4 leukemia
  TGI: 97.5 µM
OVCAR-3 ovarian
  TGI: 40.1 µM
BT-549 breast
  TGI: 35.9 µM
786-0 renal
  TGI: > 100 µM
HCC-2998 colon
  TGI: 14.8 µM
DU-145 prostate
  TGI: > 100 µM
MDA-MB-231 breast
  TGI: 86.4 µM
M14 melanoma
  TGI: > 100 µM
HT29 colon
  TGI: > 100 µM
NCI-H226 lung
  TGI: > 100 µM
NCI-H522 lung
  TGI: 47.7 µM
RXF 393 renal
  TGI: 50 µM
U251 CNS
  TGI: > 100 µM
SNB-19 CNS
  TGI: > 100 µM
HOP-92 NSCLC
  TGI: 50.6 µM
HOP-62 NSCLC
  TGI: 26.2 µM
HCT-15 colon
  TGI: > 100 µM
UACC-257 melanoma
  TGI: 72.2 µM
OVCAR-8 ovarian
  TGI: > 100 µM
CAKI-1 renal
  TGI: > 100 µM
A549 NSCLC
  TGI: > 100 µM
HL-60(TB) leukemia
  TGI: > 100 µM
COLO 205 colon
  TGI: > 100 µM
CCRF-CEM leukemia
  TGI: 45.7 µM
SR leukemia
  TGI: 43.2 µM
SK-OV-3 ovarian
  TGI: 88.4 µM
NCI/ADR-RES ovarian
  TGI: > 100 µM
OVCAR-4 ovarian
  TGI: > 100 µM
ACHN renal
  TGI: > 100 µM
UO-31 renal
  TGI: 35.4 µM
UACC-62 melanoma
  TGI: > 100 µM
